Experimental findings from patent US10906878B2, “Kinase inhibitors for the treatment of disease” (Dana-Farber Cancer Institute, Inc., priority 2013, dated 2021) are described below.

Structures are written as SMILES.

In one data set the target is BTK (Homo sapiens (Human), UniProt Q06187). Put plainly: BTK kinase assay (LanthaScreen Kinase assay). The class given is biochemical. How it is done: BTK kinase assay was conducted using LanthaScreen® Kinase assay.
1. Optimization of kinase concentration required to determine ATP Km,app. The assay was first performed at a high concentration of ATP (1 mM) against a dilution series of kinase in order to determine the amount of kinase required to elicit an approximately 80% change between the minimum and maximum TR-FRET emission ratios (the EC80 value).
2. Determination of ATP Km,app. Using the concentration of enzyme determined in step 1, the assay was then performed against a dilution series of ATP in order to determine the amount of ATP required to elicit a 50% change between the minimum and maximum TR-FRET emission ratios (the EC50 value). This concentration of ATP was referred to as the “apparent” Km value for ATP, or the ATP Km,app.
3. Optimization of kinase concentration required for assay at ATP Km,app. Using the ATP Km,app concentration of ATP determined in step 2, the kinase titration was repeated in order to determine the concentration of kinase required to elicit an approximately 80% change between the minimum and maximum TR-FRET emission ratios at the ATP Km,app concentration of ATP (the EC80 value). This was the concentration of kinase that will be used in an assay to determine an IC50 value for a compound of the invention.
Using the ATP and kinase concentrations determined above, the reaction was then performed in the presence of a dilution series of various compounds of the invention, and the amount of compounds required to elicit a 50% change in TR-FRET ratio (the IC50) was determined. The experiments can be performed over two days, with steps one and two being performed on the first day, and step three and the inhibitor IC50 determination(s) being performed on the second day.

For data set [1], the target named is EGFR L858R/T790M Ba/F3 cells (Homo sapiens (Human), UniProt P00533, L858R/T790M). The experiment in a line: Ba/F3 cell growth inhibition (MTS assay), EGFR L858R/T790M. The class given is cell-based. Conditions: for IC50: Assay 1, L858R/T790M, read-out: EGFR Ba/F3 cells IC 50 (nM) Assay 1 L858R/T790M. An excerpt:
(§1) The specific cDNAs encoding the oncogenic alterations (EGFR: Del 19, L858R, L718Q, L844V, Del/T790M, L858R/T790M, Del 19/L718Q, Del 19/L844V, Del 19/T790M/L718Q and L858R/T790M/L718Q; FGFR: TEL-FGFR1, TEL-FGFR2, TEL-FGFR1 V561M, TEL-FGFR2 V561M; ALK: EML4-ALK; ROS1: CD74-ROS1) were cloned into the pDNA-Dual (BD Biosciences) vector using standard molecular biology techniques. Mutations were introduced using site-directed mutagenesis (Agilent) with mutant specific primers according to the manufacturer's instructions. All constructs were confirmed by DNA sequencing. The constructs were introduced into Ba/F3 cells using retroviral infection. Polyclonal cell lines were established by puromycin selection and subsequently cultured in the absence of interleukin-3 (IL-3). Uninfected Ba/F3 cells or cell lines expressing green fluorescent protein (GFP) were used as controls.
(§2) Growth and inhibition of growth was assessed by MTS assay. This assay, a colorimetric method for determining the number of viable cells, is based on the bioreduction of 3-(4,5-dimethylthiazol-2-yl)-5-(3-carboxymethoxyphenyl)-2-(4-sulfophenyl)-2H-tetrazolium (MTS) by cells to a formazan product that is soluble in cell culture medium, can be detected spectrophotometrically and was performed according to the manufacturer's recommended conditions. Ba/F3 cells were exposed to treatment for 72 hours and the number of cells used per experiment determined empirically to assure linear growth kinetics over that time period. All experimental points were set up in six to twelve wells and all experiments were repeated at least three times. […] The curves were fitted using a non-linear regression model with a sigmoidal dose response.

In data set [2] the target is EGFR Del/T790M Ba/F3 cells (Homo sapiens, UniProt P00533, T790M, cells depend on it, form not given). The experiment in a line: Ba/F3 cell growth inhibition (MTS assay), EGFR Del/T790M. The class given is cell-based. Conditions: for IC50: Assay 1, Del/T790M, read-out: EGFR Ba/F3 cells IC 50 (nM) Assay 1 Del/T790M.
Text: as §1, §2
A general note: Tetrazolium dyes change colour on reduction, which living cells bring about.

In data set [3] the target is EGFR L858R/T790M/L718Q Ba/F3 cells (Homo sapiens (Human), UniProt P00533, L718Q/L858R/T790M). Put plainly: Ba/F3 cell growth inhibition (MTS assay), EGFR L858R/T790M/L718Q. The class given is cell-based. Conditions: for IC50: Assay 1, T/L/L718Q, read-out: EGFR Ba/F3 cells IC 50 (nM) Assay 1 T/L/L718Q.
Text: as §1, §2

A further data set deals with EGFR Del Ba/F3 cells (Homo sapiens, UniProt P00533, cells depend on it, form not given). The experiment in a line: Ba/F3 cell growth inhibition (MTS assay), EGFR Del. Conditions: for IC50: Assay 1, Del, read-out: EGFR Ba/F3 cells IC 50 (nM) Assay 1 Del. The class given is cell-based.
Text: as §1, §2

A further data set concerns the target EGFR L858R Ba/F3 cells (Homo sapiens (Human), UniProt P00533, L858R). Put plainly: Ba/F3 cell growth inhibition (MTS assay), EGFR L858R. The class given is cell-based. Conditions: for IC50: L858R, read-out: EGFR Ba/F3 cells IC 50 (nM) Assay 1 L858R.
Text: as §1, §2

For data set [4], the target named is EGFR Wild type vIII Ba/F3 cells (Homo sapiens (Human), UniProt P00533, DELINS30-297G). Put plainly: Ba/F3 cell growth inhibition (MTS assay), EGFR Wild type vIII. Conditions: Assay 1, read-out: EGFR Ba/F3 cells IC 50 (nM) Assay 1 Wild type vIII. The class given is cell-based.
A further data set concerns KIF5B/Ret_V804M. The experiment in a line: Ba/F3 cell growth inhibition (MTS assay), KIF5B/Ret_V804M. The class given is cell-based. How it is done:
as §2

Data set [5] addresses EGFR Del/T790M/L718Q Ba/F3 cells (Homo sapiens, UniProt P00533, L718Q/T790M, cells depend on it, form not given). The class given is cell-based.
Text: as §1, §2

Data set [6] deals with EGFR L718Q/L858R Ba/F3 cells (Homo sapiens (Human), UniProt P00533, L718Q/L858R). The experiment in a line: Ba/F3 cell growth inhibition (MTS assay), EGFR L858R/L718Q. The settings on record: 100 nM drug; Table F. The class given is cell-based.
A short description of data set [7]: Microsome Stability Mouse. The class given is in vitro ADME. The settings on record: mouse microsomes.

Sequence of BTK (Q06187 whole entry): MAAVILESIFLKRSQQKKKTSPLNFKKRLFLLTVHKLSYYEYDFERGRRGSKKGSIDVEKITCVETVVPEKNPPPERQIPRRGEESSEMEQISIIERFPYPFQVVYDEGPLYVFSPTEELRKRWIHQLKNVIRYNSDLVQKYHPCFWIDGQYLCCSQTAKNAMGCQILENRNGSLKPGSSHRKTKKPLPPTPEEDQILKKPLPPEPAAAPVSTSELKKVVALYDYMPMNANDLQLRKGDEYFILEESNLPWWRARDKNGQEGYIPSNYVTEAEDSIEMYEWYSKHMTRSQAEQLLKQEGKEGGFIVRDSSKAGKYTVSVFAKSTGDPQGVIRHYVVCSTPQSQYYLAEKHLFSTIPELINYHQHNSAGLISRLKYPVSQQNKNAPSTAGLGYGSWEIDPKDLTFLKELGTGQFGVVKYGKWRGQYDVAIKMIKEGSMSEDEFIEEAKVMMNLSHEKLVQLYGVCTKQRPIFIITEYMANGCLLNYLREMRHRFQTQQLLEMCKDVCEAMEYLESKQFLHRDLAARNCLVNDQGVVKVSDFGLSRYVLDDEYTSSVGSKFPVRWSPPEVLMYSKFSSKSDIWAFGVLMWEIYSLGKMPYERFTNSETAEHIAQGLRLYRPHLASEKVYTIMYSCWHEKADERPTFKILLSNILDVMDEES

On BTK, `CN(C)C/C=C/C(=O)Nc1cccc(N(C(=O)OCc2ccccc2)c2ccnc3[nH]ccc23)c1` [Compound 104A] gave an IC50 of more than 10000 nM.
As to `C=CC(=O)Nc1cccc(N(C(=O)NCc2ccccc2)c2cc(Nc3ccc(N4CCN(C)CC4)cc3OC)nc(Cl)n2)c1` [Compound 78A], the IC50 amounted to 41.8 nM in [1]; 68.2 nM in data set [2]; 2240 nM in data set [3]; 23.9 nM on EGFR Del Ba/F3 cells; 2.66 nM on EGFR L858R Ba/F3 cells (Assay 1); 19.9 nM in data set [4].
For the molecule `C=CC(=O)Nc1cccc(Oc2nc(Nc3ccc(N4CCN(C)CC4)cc3OC)ncc2Cl)c1` [WZ4002, reference compound], the “EGFR activity (% Control, 1.0 μM drug) Assay 1 KIF5B/Ret_V804M” value in the data set with KIF5B/Ret_V804M is listed as 93 % Control. For the same molecule, in [1] (Table F), the “EGFR activity (% Control, 100 nM drug) L858R/T790M” value is on record as 3 % Control. Also, in [1] (Table G), the “EGFR activity (% Control, 100 nM drug) L858R/T790M” value is 30 % Control. In data set [2], the “EGFR activity (% Control, 100 nM drug) DEL/T790M” value was found to be 2 % Control; the “EGFR activity (% Control, 100 nM drug) Del/T790M” value is on record as 6 % Control; the “EGFR activity (% Control, 1.0 μM drug) Assay 1 Del/T790M” value stood at 1 % Control; the “EGFR activity (% Control, 1.0 μM drug) Assay 2 Del/T790M” value came to 3 % Control. Further, the “EGFR activity (% Control, 100 nM drug) L858R/T790M/L718Q” value in [3] (100 nM drug, Table F) was determined as 104 % Control. For the same molecule, in data set [5], the “EGFR activity (% Control, 1.0 μM drug) Assay 1 Del/T790M/L718Q” value is 91 % Control and the “EGFR activity (% Control, 1.0 μM drug) Assay 2 Del/T790M/L718Q” value is on record as 85 % Control. For the same molecule, in data set [6], the “EGFR activity (% Control, 100 nM drug) L858R/L718Q” value is recorded as 94 % Control. In addition, on EGFR Del Ba/F3 cells, the “EGFR activity (% Control, 1.0 μM drug) Assay 1 Del” value is 3 % Control and the “EGFR activity (% Control, 1.0 μM drug) Assay 2 Del” value stood at 6 % Control. Further, the “EGFR activity (% Control, 100 nM drug) L858R” value on EGFR L858R Ba/F3 cells (Table F) worked out at 2 % Control. Besides, the “EGFR activity (% Control, 100 nM drug) L858R” value at EGFR L858R Ba/F3 cells (Table G) was determined as 0 % Control. Besides, the “EGFR activity (% Control, 1.0 μM drug) Assay 1 L858R” value at EGFR L858R Ba/F3 cells (1.0 μM drug, Assay 1) was found to be 2 % Control. Moreover, the “EGFR activity (% Control, 1.0 μM drug) Assay 2 L858R” value at EGFR L858R Ba/F3 cells (1.0 μM drug, Assay 2) is on record as 2 % Control.
In the case of `C=CC(=O)Nc1cccc(N(C(=O)N[C@@H](C)c2ccccc2)c2cc(Nc3ccc(N4CCN(C)CC4)cc3OC)ncn2)c1` [Compound 34A], the IC50 stood at 20 nM in [1]; 60.4 nM in data set [2]; 312 nM in data set [3]; 19.7 nM on EGFR Del Ba/F3 cells; 0.51 nM at EGFR L858R Ba/F3 cells (Assay 1); 10.1 nM in data set [4]. Also, the “Microsome Stability Mouse min” value in [7] turned out to be 9.4 min.
